One series has as its target T1, PDE3 (cGMP-inhibited) (Homo sapiens, UniProt Q14432).
T1 construct: investigated in homogenates of human platelets; from tissue; host or cells: homogenates of human platelets
Put plainly: Inhibition of PDE3 activity, Method A (homogenates of human platelets). It counts as biochemical. The conditions noted are these: read-out: PDE3 Inhibition [measured as −logIC50 (mol/l)] (converted). How it is done:
The PDE activity was determined according to Thompson et al. (Adv Cycl Nucl Res 10: 69-92, 1979) with some modifications (Bauer and Schwabe, Naunyn-Schmiedeberg's Arch Pharmacol 311: 193-198, 1980). The test samples contained 20 mM Tris (pH 7.4), 5 mM MgCl2, 0.5 μM cAMP or cGMP, [^3H]cAMP or [^3H]cGMP (about 30 000 cpm/sample), the PDE isoenzyme-specific additives described in greater detail below, the indicated concentrations of inhibitor and an aliquot of the enzyme solution in a total sample volume of 200 μl. Dilution series of the compounds according to the invention were prepared in DMSO and further diluted in the samples [1:100 (v/v)], to give the desired end concentration of the inhibitors at a DMSO concentration of 1% (v/v), which for its part has only a minute effect on PDE activity.
After preincubation at 37° C. for 5 minutes, the reaction was started by addition of the substrate (cAMP or cGMP). The samples were incubated at 37° C. for a further 15 min. The reaction was terminated by addition of 50 μl 0.2 N HCl. After cooling on ice for 10 minutes and addition of 25 μg 5′-nucleotidase (snake venom from Crotalus atrox), the mixture was again incubated at 37° C. for 10 mih and the samples were then applied to QAE Sephadex A-25 columns (sample volume 1 ml). The columns were eluted with 2 ml of 30 mM ammonium formate (pH 6.0). The radioactivity of the eluate was measured and corrected by the corresponding blank values (measured in the presence of denatured protein); the blank values were less than 5% of the total radioactivity. In no case did the proportion of hydrolyzed nucleotide exceed 30% of the original substrate concentration.
PDE3 (cGMP-inhibited) was investigated in homogenates of human platelets (see Schudt et al., Biochem Pharmacol 1991: 42, 153-162) using cAMP or cGMP as substrate.
The IC50 values were determined from the concentration-inhibition curves by nonlinear regression.

Each structure is given as a SMILES string. Where a name gives a salt, the structure may show the parent alone. Some results are limits rather than exact numbers.

T1 sequence (Q14432 whole entry): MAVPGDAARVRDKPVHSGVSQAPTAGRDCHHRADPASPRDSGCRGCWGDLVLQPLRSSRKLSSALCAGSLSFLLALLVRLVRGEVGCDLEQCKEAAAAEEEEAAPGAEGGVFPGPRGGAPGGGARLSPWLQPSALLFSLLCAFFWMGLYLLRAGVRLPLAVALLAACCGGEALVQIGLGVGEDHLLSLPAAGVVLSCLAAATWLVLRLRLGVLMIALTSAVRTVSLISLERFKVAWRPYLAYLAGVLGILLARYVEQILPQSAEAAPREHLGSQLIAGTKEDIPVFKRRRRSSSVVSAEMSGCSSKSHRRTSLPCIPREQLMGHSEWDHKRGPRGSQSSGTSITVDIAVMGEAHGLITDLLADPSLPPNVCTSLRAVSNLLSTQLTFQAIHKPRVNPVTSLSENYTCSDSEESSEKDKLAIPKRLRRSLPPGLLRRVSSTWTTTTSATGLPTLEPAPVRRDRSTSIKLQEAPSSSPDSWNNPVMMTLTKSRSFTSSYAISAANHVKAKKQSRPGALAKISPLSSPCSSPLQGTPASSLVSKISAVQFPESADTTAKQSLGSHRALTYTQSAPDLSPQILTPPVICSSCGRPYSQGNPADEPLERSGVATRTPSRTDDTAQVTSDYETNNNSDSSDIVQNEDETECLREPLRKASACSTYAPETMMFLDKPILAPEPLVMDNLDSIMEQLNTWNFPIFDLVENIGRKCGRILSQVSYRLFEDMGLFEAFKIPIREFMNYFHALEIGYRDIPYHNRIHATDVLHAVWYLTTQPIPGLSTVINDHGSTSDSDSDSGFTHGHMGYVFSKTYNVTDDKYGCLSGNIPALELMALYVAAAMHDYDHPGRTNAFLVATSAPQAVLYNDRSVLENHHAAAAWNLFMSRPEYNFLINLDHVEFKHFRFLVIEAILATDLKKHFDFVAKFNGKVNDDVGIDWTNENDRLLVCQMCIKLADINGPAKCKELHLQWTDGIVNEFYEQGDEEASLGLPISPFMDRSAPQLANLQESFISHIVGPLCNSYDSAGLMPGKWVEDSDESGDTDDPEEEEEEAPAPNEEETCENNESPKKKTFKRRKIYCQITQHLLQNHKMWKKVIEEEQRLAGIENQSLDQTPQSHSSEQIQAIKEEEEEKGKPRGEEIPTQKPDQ

As to `COc1ccc(C2=NN(C3CCN(S(=O)(=O)c4ccccc4OC(F)(F)F)CC3)C(=O)CC2)cc1OC` [Compound 21, 6-(3,4-Dimethoxy-phenyl)-2-[1-(2-trifluoromethoxy-benzenesulfonyl)-piperidin-4-yl]-4,5-dihydro-2H-pyridazin-3-one], the melting point lay within 118 to 119 °C. For the same compound, the IC50 at PDE3 (cGMP-inhibited) was 100 nM.
In turn, `COc1ccc(C2=NN(C3CCN(S(=O)(=O)N(C)C)CC3)C(=O)CC2)cc1OC` [Compound 22, 4-[3-(3,4-Dimethoxy-phenyl)-6-oxo-5,6-dihydro-4H-pyridazin-1-yl]-piperidine-1-sulfonic acid dimethylamide] returned a melting point of 103 to 106 °C.
`COc1ccc(C2=NN(C3CCN(Cc4cccnc4)CC3)C(=O)CC2C)cc1OC.Cl.Cl` (stereo not drawn) [Compound 6, 6-(3,4-Dimethoxy-phenyl)-5-methyl-2-(1-pyridin-3-ylmethyl-piperidin-4-yl)-4,5-dihydro-2H-pyridazin-3-one dihydrochloride] displayed a melting point of 241 to 244 °C. Besides, on PDE3 (cGMP-inhibited), the IC50 was 5890 nM.
The like results for `COc1ccc(C2=NN(C3CCN(C(C)=O)CC3)C(=O)CC2C)cc1OC` (stereo not drawn) [Compound 4, 2-(1-Acetyl-piperidin-4-yl)-6-(3,4-dimethoxy-phenyl)-5-methyl-4,5-dihydro-2H-pyridazin-3-one] were, in that order, 149 to 152 °C and 1740 nM.
The like results for `COc1ccc(C2=NN(C3CCN(S(=O)(=O)Cc4ccccc4)CC3)C(=O)CC2)cc1OC` [Compound 14, 6-(3,4-Dimethoxy-phenyl)-2-(1-phenylmethanesulfonyl-piperidin-4-yl)-4,5-dihydro-2H-pyridazin-3-one] were, in that order, 114 °C and 251 nM.
As for `COc1ccc(C2=NN(C3CCN(C(=O)CN4CCN(c5ccccc5OC)CC4)CC3)C(=O)CC2)cc1OC.Cl.Cl`, the melting point was 109 to 110 °C.
For the compound `COc1ccc(C2=NN(C3CCN(CC(=O)N4CCOCC4)CC3)C(=O)CC2)cc1OC` [Compound 10, 6-(3,4-Dimethoxy-phenyl)-2-[1-(2-morpholin4-yl-2-oxo-ethyl)-piperidin-4-yl]-4,5-dihydro-2-pyridazin-3-one hydrochloride], the IC50 at PDE3 (cGMP-inhibited) was 4470 nM.
`COc1ccc(C2=NN(C3CCN(C(=O)N4CCN(C)CC4)CC3)C(=O)CC2)cc1OC.Cl` [Compound 8, 6-(3,4-Dimethoxy-phenyl)-2-{1-[1-(4-methyl-piperazin-1-yl)-methanoyl]-piperidin-4-yl}-4,5-dihydro-2H-pyridazin-3-one hydrochloride] registered a melting point of 151 to 154 °C. At PDE3 (cGMP-inhibited), the IC50 was greater than 10000 nM.
The like results for `COc1ccc(C2=NN(C3CCN(S(=O)(=O)c4ccccc4F)CC3)C(=O)CC2)cc1OC` [Compound 20, 6-(3,4-Dimethoxy-phenyl)-2-[1-(2-fluoro-benzenesulfonyl)-Piperidin-4-yl]-4,5-dihydro-2H-pyridazin-3-one] were, in that order, 198 to 199 °C and 158 nM.
As to `COc1ccc(C2=NN(C3CCN(C(=O)c4cccnc4)CC3)C(=O)CC2)cc1OC` [Compound 24, 6-(3,4-Dimethoxy-phenyl)-2-[1-(1-pyridin-3-yl-methanoyl)-piperidin-4-yl]-4,5-dihydro-2H-pyridazin-3-one], the melting point is 162 to 164 °C.
Regarding `COc1ccc(C2=NN(C3CCN(C(=O)N4CCOCC4)CC3)C(=O)CC2C)cc1OC` (stereo not drawn) [Compound 5], the melting point lay within 137 to 138 °C. The IC50 at PDE3 (cGMP-inhibited) is 1780 nM.
The like results for `COc1ccc(S(=O)(=O)N2CCC(N3N=C(c4ccc(OC)c(OC)c4)CCC3=O)CC2)cc1` [Compound 15, 6-(3,4-Dimethoxy-phenyl)-2-[1-(4-methoxy-benzenesulfonyl)-piperidin-4-yl]-4,5-dihydro-2H-pyridazin-3-one] were, in that order, 197 to 198 °C and 501 nM.
The like results for `COc1ccc(C2=NN(C3CCN(S(=O)(=O)c4ccc(C)cc4)CC3)C(=O)CC2)cc1OC` [Compound 11, 6-(3,4-Dimethoxy-phenyl)-2-[1-(toluene-4-sulfonyl)-piperidin-4-yl]-4,5-dihydro-2H-pyridazin-3-one] were, in that order, 179 to 184 °C and 501 nM.
`COc1ccc(C2=NN(C3CCNCC3)C(=O)CC2C)cc1OC.Cl` (stereo not drawn): the melting point lay within 91 to 95 °C.
For the compound `COc1ccc(C2=NN(C3CCN(S(=O)(=O)c4cccc5c(N(C)C)cccc45)CC3)C(=O)CC2)cc1OC` [Compound 9, 6-(3,4-Dimethoxy-phenyl)-2-[1-(5-dimethylamino-naphthalene-1-sulfonyl)-piperidin-4-yl]-4,5-dihydro-2-pyridazin-3-one], the melting point fell in the range of 191 to 193 °C. For the same compound, at PDE3 (cGMP-inhibited), the IC50 was 245 nM.
`COc1ccc(C2=NN(C3CCN(C(=O)NC(C)(C)C)CC3)C(=O)CC2)cc1OC` [Compound 26, 4-[3-(3,4-Dimethoxy-phenyl)-6-oxo-5,6-dihydro-4H-pyridazin-1-yl]-piperidine-1-carboxylic acid tert-butylamide] came in with a melting point of 76 to 78 °C.
Same read-out and setting: the same measure for `COc1ccc(C2=NN(C3CCN(CC(=O)N4CCOCC4)CC3)C(=O)CC2)cc1OC` (as salt: hydrochloride) [Compound 10, 6-(3,4-Dimethoxy-phenyl)-2-[1-(2-morpholin4-yl-2-oxo-ethyl)-piperidin-4-yl]-4,5-dihydro-2-pyridazin-3-one hydrochloride]: 145 to 148 °C.
As for `CCN1CCN(C(=O)N2CCC(N3N=C(c4ccc(OC)c(OC)c4)CCC3=O)CC2)C(=O)C1=O` [Compound 7], the melting point was 201 to 203 °C. In addition, the IC50 at PDE3 (cGMP-inhibited) was greater than 10000 nM.
The like results for `COc1ccc(C2=NN(C3CCN(S(=O)(=O)c4ccccc4C#N)CC3)C(=O)CC2)cc1OC` [Compound 18, 2-{4-[3-(3,4-Dimethoxy-phenyl)-6-oxo-5,6-dihydro-4H-pyridazin-1-yl]-piperidine-1-sulfonyl}-benzonitrile] were, in that order, 158 to 160 °C and 79.4 nM.
The like results for `COc1ccc(C2=NN(C3CCN(CC(=O)N(C)C)CC3)C(=O)CC2)cc1OC.Cl` [Compound 27, 2-{4-[3-(3,4-Dimethoxy-phenyl)-6-oxo-5,6-dihydro-4H-pyridazin-1-yl]-piperidin-1-yl}-N,N-dimethylacetamide hydrochloride] were, in that order, 121 to 122 °C and greater than 10000 nM.
The like results for `COc1ccc(C2=NN(C3CCN(S(C)(=O)=O)CC3)C(=O)CC2)cc1OC` [Compound 12, 6-(3,4-Dimethoxy-phenyl)-2-(1-methanesulfonyl-piperidin-4-yl)-4,5-dihydro-2H-pyridazin-3-one] were, in that order, 164 to 166 °C and 251 nM.
Compound `COc1ccc(C2=NN(C3CCN(S(=O)(=O)c4ccc(Cl)cc4)CC3)C(=O)CC2)cc1OC` [Compound 13, 2-[1-(4-Chloro-benzenesulfonyl)-piperidin-4-yl]-6-(3,4-dimethoxy-phenyl)-4,5-dihydro-2H-pyridazin-3-one] showed a melting point of 185 to 186 °C.

Broadly, the melting point is the temperature, or range, at which the solid turns liquid.

The values are drawn from patent publication US20060167001A1, “Pyridazinone-derivatives as pde4 inhibitors” (priority 2002, published 2006).
